Holding throughout (format): biochemical
One assay addresses CDK2/CCNE1 (Homo sapiens, UniProt P24941). The experiment in a line: CDK2 homogeneous time-resolved fluorescence (HTRF) kinase assay. To be noted: CDK2/CCNE. The essentials:
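3 nM CDK2/CCNE1 was preincubated with compound for 20 min at 23 °C in HEPES buffer (pH not stated), then reacted 60 min with 1 mM ATP and 50 nM ULight-4E-BP1 (Thr37/46) peptide. After EDTA stop, Eu-anti-phospho-4E-BP1 antibody (2 nM) was added for 60 min and TR-FRET read at 665 nm.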
(In general: In TR-FRET formats the signal depends on donor and acceptor labels being close together.)

For a further assay, the target named is CDK1/CCNB1 (Homo sapiens, UniProt P06493). Kind of assay: CDK1 homogeneous time-resolved fluorescence (HTRF) kinase assay. Conditions: CDK1/CCNB. The method, boiled down:
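0.5 nM CDK1/CCNB1 was preincubated 20 min at 23 °C with compound in HEPES pH-unspecified buffer (MgCl2, EGTA, DTT, Tween 20), then reacted 60 min with 1 mM ATP and 50 nM ULight-4E-BP1 (Thr37/46) peptide. EDTA-stopped reactions were detected with 2 nM Eu-anti-phospho antibody; IC50 from 11-point half-log titrations.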

The target of the next assay is CDK4/CCND3 (Homo sapiens, UniProt P11802). The experiment in a line: CDK4 homogeneous time-resolved fluorescence (HTRF) kinase assay. To be noted: CDK4/CCND. The essentials:
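Compounds were preincubated with 1.5 nM CDK4/CCND3 for 20 min at 23 °C in HEPES buffer (pH not given), then reacted 60 min with 1 mM ATP and 50 nM ULight-4E-BP1 (Thr37/46) peptide. EDTA stop, Eu-anti-phospho-4E-BP1 detection; 665/615 nm ratio; IC50 from 11-point half-log titrations from 10 μM.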

The next assay addresses CDK6/CCND1 (Homo sapiens, UniProt Q00534). The experiment in a line: CDK6 homogeneous time-resolved fluorescence (HTRF) kinase assay. Conditions: CDK6/CCND. The method, boiled down: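 1 nM enzyme, 1 mM ATP, 50 nM ULight-4E-BP1 (Thr37/46) peptide, 1% DMSO; 20 min compound preincubation, 60 min reaction, 23 °C. EDTA stop, 2 nM Eu-anti-phospho-4E-BP1 antibody 60 min. TR-FRET 665 nm (or 665/615 ratio); IC50 from 11-point half-log titration, top 10 μM.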

The mark [1] stands for this setting: <25 nM, read-out: CDK2/CCNE IC50 <25 nM.
Setting [2] is: >250 nM marked x, read-out: CDK1/CCNB IC50 >250 nM.
The mark [3] stands for this setting: 25-250 nM marked x, read-out: CDK4/CCND IC50 25-250 nM.
[4] abbreviates: 25-250 nM marked x, read-out: CDK6/CCND IC50 25-250 nM.
Setting [5] is: >250 nM marked x, read-out: CDK4/CCND IC50 >250 nM.
The mark [6] stands for this setting: >250 nM marked x, read-out: CDK6/CCND IC50 >250 nM.
The mark [7] stands for this setting: <25 nM, read-out: CDK4/CCND IC50 <25 nM.
Where [8] appears, read: 25-250 nM marked x, read-out: CDK2/CCNE IC50 25-250 nM.
The mark [9] stands for this setting: 25-250 nM marked x, read-out: CDK1/CCNB IC50 25-250 nM.
[10] abbreviates: >250 nM marked x, read-out: CDK2/CCNE IC50 >250 nM.

Structures are written as SMILES. Like-named read-outs stand apart in the source and are kept apart here.

CDK6/CCND1, sequence (Q00534 whole entry): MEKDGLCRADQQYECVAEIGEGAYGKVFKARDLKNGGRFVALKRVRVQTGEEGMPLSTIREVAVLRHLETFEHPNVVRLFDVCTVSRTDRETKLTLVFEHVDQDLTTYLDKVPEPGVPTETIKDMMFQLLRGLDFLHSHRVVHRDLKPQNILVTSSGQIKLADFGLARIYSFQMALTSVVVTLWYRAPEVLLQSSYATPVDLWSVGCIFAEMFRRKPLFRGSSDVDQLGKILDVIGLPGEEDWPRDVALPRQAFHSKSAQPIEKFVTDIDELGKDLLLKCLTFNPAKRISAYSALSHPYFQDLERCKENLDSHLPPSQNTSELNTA
CDK6/CCND1, sequence (P24385 whole entry partner): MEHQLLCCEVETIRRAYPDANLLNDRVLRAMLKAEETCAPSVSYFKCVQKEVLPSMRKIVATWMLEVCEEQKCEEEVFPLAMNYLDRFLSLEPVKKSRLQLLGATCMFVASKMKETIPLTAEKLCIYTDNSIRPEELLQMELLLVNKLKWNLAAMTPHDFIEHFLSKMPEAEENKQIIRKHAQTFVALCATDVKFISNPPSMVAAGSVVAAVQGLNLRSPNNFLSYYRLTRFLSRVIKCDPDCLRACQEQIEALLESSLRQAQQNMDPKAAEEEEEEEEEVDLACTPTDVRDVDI
CDK1/CCNB1, sequence (P06493 whole entry): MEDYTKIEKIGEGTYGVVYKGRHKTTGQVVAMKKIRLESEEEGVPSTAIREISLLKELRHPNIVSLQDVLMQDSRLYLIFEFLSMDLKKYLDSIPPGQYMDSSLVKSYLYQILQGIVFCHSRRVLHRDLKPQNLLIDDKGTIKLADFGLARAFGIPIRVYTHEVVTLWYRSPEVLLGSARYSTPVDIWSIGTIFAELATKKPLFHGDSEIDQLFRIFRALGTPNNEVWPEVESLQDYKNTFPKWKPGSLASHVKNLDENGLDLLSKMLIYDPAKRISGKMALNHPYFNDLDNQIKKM
CDK1/CCNB1, sequence (P14635 whole entry partner): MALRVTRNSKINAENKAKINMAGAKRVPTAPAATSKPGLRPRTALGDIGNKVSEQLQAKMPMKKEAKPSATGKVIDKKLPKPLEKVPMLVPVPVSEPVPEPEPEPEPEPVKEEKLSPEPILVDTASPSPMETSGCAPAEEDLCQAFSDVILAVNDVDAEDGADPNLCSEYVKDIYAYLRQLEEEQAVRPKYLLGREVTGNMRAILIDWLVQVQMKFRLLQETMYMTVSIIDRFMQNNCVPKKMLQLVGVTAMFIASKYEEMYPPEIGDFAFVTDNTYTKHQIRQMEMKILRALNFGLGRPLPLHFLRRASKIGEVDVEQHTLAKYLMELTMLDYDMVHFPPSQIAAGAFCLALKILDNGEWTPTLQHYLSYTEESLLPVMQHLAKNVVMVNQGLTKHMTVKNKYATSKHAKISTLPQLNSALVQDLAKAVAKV
CDK4/CCND3, sequence (P11802 whole entry): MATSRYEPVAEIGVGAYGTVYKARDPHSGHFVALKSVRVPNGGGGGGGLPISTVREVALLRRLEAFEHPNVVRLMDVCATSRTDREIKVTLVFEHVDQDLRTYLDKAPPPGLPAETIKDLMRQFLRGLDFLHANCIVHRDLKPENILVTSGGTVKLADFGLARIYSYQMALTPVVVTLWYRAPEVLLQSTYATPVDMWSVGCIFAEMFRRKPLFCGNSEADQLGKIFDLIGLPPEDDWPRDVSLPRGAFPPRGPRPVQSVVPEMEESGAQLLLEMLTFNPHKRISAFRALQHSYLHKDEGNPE
CDK4/CCND3, sequence (P30281 whole entry partner): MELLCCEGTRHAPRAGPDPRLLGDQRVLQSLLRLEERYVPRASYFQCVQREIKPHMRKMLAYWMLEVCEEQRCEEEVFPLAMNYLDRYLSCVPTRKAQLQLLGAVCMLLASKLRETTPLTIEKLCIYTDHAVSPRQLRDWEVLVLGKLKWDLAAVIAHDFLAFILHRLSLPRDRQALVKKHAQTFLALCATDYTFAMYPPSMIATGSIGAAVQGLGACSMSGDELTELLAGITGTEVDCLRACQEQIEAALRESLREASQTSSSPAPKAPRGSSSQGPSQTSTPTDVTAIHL

As for `CS(=O)(=O)c1ccc(Nc2cc3c(C4=CCNCC4)nccc3cn2)cc1` [Ex 146, N-(4-(methylsulfonyl)phenyl)-5-(1,2,3,6-tetrahydropyridin-4-yl)-2,6-naphthyridin-3-amine], the IC50 at CDK2/CCNE1 (CDK2/CCNE IC50 25-250 nM, 25-250 nM marked x) is 25 to 250 nM; at CDK1/CCNB1 (CDK1/CCNB IC50 >250 nM, >250 nM marked x), > 250 nM; against CDK4/CCND3 (CDK4/CCND IC50 25-250 nM, 25-250 nM marked x) it was 25 to 250 nM; against CDK6/CCND1 (CDK6/CCND IC50 25-250 nM, 25-250 nM marked x), 25 to 250 nM.

For `Cc1c(-c2nccc3cnc(Nc4ccc(S(C)(=O)=O)cc4)cc23)ccc2[nH]ncc12` [Ex 148, 5-(4-methyl-1H-indazol-5-yl)-N-(4-(methylsulfonyl)phenyl)-2,6-naphthyridin-3-amine], the IC50 is < 25 nM at CDK2/CCNE1 (setting [1]), > 250 nM at CDK1/CCNB1 (setting [2]), 25 to 250 nM on CDK4/CCND3 (setting [3]) and 25 to 250 nM on CDK6/CCND1 (setting [4]).

`C=CS(=O)(=O)c1ccc(Nc2cc3c(C#CC)nccc3cn2)cc1` [Ex 149, 5-(prop-1-yn-1-yl)-N-(4-(vinylsulfonyl)phenyl)-2,6-naphthyridin-3-amine]: the IC50 was < 25 nM at CDK2/CCNE1 (setting [1]), > 250 nM at CDK1/CCNB1 (setting [2]), > 250 nM at CDK4/CCND3 (setting [5]) and > 250 nM on CDK6/CCND1 (setting [6]).

As for `CS(=O)(=O)c1ccc(Nc2cc3c(C#C[C@H]4CC[C@H](O)CC4)nccc3cn2)cc1` [Ex 150, (1r,4r)-4-((7-((4-(methylsulfonyl)phenyl)amino)-2,6-naphthyridin-1-yl)ethynyl)cyclohexan-1-ol], the IC50 on CDK2/CCNE1 (setting [1]) is < 25 nM; on CDK1/CCNB1 (setting [2]), > 250 nM; on CDK4/CCND3 (setting [7]) it was < 25 nM; on CDK6/CCND1 (setting [4]), 25 to 250 nM.

For the compound `C=CS(=O)(=O)c1ccc(Nc2cc3c(C#Cc4ccc(C#N)cc4)nccc3cn2)cc1` [Ex 156, 4-((7-((4-(vinylsulfonyl)phenyl)amino)-2,6-naphthyridin-1-yl)ethynyl)benzonitrile], the IC50 on CDK2/CCNE1 (setting [8]) is 25 to 250 nM; on CDK1/CCNB1 (setting [2]), > 250 nM; at CDK4/CCND3 (setting [5]), > 250 nM; on CDK6/CCND1 (setting [6]) it was > 250 nM.

`Cc1c(-c2nccc3cnc(Nc4ccc(S(C)(=O)=O)cc4)cc23)ccc2c1cnn2C` [Ex 158, 5-(1,4-dimethyl-1H-indazol-5-yl)-N-(4-(methylsulfonyl)phenyl)-2,6-naphthyridin-3-amine]: the IC50 on CDK2/CCNE1 (setting [1]) is < 25 nM; at CDK1/CCNB1 (setting [2]), > 250 nM; on CDK4/CCND3 (setting [3]), 25 to 250 nM; at CDK6/CCND1 (setting [6]) it was > 250 nM.

As for `C=CS(=O)(=O)c1ccc(Nc2cc3c(-c4ccc5cc[nH]c5c4)nccc3cn2)cc1` [Ex 162, 5-(1H-indol-6-yl)-N-(4-(vinylsulfonyl)phenyl)-2,6-naphthyridin-3-amine], the IC50 on CDK2/CCNE1 (setting [1]) was < 25 nM; on CDK1/CCNB1 (setting [2]) it was > 250 nM; on CDK4/CCND3 (setting [5]) it was > 250 nM; at CDK6/CCND1 (setting [6]), > 250 nM.

For the compound `Cc1c(-c2nccc3cnc(Nc4ccc(S(C)(=O)=O)cc4)cc23)ccc2nn(C)cc12` [Ex 166, 5-(2,4-dimethyl-2H-indazol-5-yl)-N-(4-(methylsulfonyl)phenyl)-2,6-naphthyridin-3-amine], the IC50 at CDK2/CCNE1 (setting [1]) is < 25 nM; at CDK1/CCNB1 (setting [2]), > 250 nM; on CDK4/CCND3 (setting [3]), 25 to 250 nM; on CDK6/CCND1 (setting [4]), 25 to 250 nM.

For `Cc1nc(-c2nccc3cnc(Nc4ccc(S(C)(=O)=O)cc4)cc23)no1` [Ex 167, 5-(5-methyl-1,2,4-oxadiazol-3-yl)-N-(4-(methylsulfonyl)phenyl)-2,6-naphthyridin-3-amine], the IC50 was 25 to 250 nM on CDK2/CCNE1 (setting [8]), > 250 nM on CDK1/CCNB1 (setting [2]), > 250 nM on CDK4/CCND3 (setting [5]) and > 250 nM at CDK6/CCND1 (setting [6]).

As to `CS(=O)(=O)c1ccc(Nc2cc3c(-c4ccc5[nH]ncc5c4Cl)nccc3cn2)cc1` [Ex 183, 5-(4-chloro-1H-indazol-5-yl)-N-(4-(methylsulfonyl)phenyl)-2,6-naphthyridin-3-amine], the IC50 at CDK2/CCNE1 (setting [1]) is < 25 nM; on CDK1/CCNB1 (setting [2]), > 250 nM; on CDK4/CCND3 (setting [3]), 25 to 250 nM; at CDK6/CCND1 (setting [6]) it was > 250 nM.

On to `CS(=O)(=O)c1ccc(Nc2cc3c(-c4ccc5[nH]ncc5c4F)nccc3cn2)cc1` [Ex 184, 5-(4-fluoro-1H-indazol-5-yl)-N-(4-(methylsulfonyl)phenyl)-2,6-naphthyridin-3-amine], for which the IC50 at CDK2/CCNE1 (setting [8]) was 25 to 250 nM; at CDK1/CCNB1 (setting [2]) it was > 250 nM; on CDK4/CCND3 (setting [3]), 25 to 250 nM; at CDK6/CCND1 (setting [6]), > 250 nM.

On to `C=CS(=O)(=O)c1ccc(Nc2cc3c(-c4ccc5[nH]ccc5c4)nccc3cn2)cc1` [Ex 185, 5-(1H-indol-5-yl)-N-(4-(vinylsulfonyl)phenyl)-2,6-naphthyridin-3-amine], for which the IC50 on CDK2/CCNE1 (setting [8]) was 25 to 250 nM; on CDK1/CCNB1 (setting [2]), > 250 nM; on CDK4/CCND3 (setting [5]), > 250 nM; on CDK6/CCND1 (setting [6]), > 250 nM.

On to `N#CC1CCN(c2nccc3cnc(Nc4ccc(S(N)(=O)=O)cc4)cc23)CC1` [Ex 187, 4-((5-(4-cyanopiperidin-1-yl)-2,6-naphthyridin-3-yl)amino)benzenesulfonamide], for which the IC50 at CDK2/CCNE1 (setting [1]) was < 25 nM; on CDK1/CCNB1 (setting [9]) it was 25 to 250 nM; at CDK4/CCND3 (setting [3]) it was 25 to 250 nM; on CDK6/CCND1 (setting [4]), 25 to 250 nM.

On to `CS(=O)(=O)c1ccc(Nc2cc3c(C4CCN(C(=O)Nc5cccnc5)CC4)nccc3cn2)cc1` [Ex 198, 4-(7-((4-(methylsulfonyl)phenyl)amino)-2,6-naphthyridin-1-yl)-N-(pyridin-3-yl)piperidine-1-carboxamide], for which the IC50 on CDK2/CCNE1 (setting [10]), on CDK1/CCNB1 (setting [2]), on CDK4/CCND3 (setting [5]) and at CDK6/CCND1 (setting [6]) was > 250 nM each time.

With `COCCNC(=O)[C@H]1CC[C@H](c2nccc3cnc(Nc4ccc(S(C)(=O)=O)cc4)cc32)CC1` [Ex 199, (1r,4r)-N-(2-methoxyethyl)-4-(7-((4-(methylsulfonyl)phenyl)amino)-2,6-naphthyridin-1-yl)cyclohexane-1-carboxamide], the IC50 on CDK2/CCNE1 (setting [8]) was 25 to 250 nM; on CDK1/CCNB1 (setting [2]), > 250 nM; at CDK4/CCND3 (setting [5]) it was > 250 nM; on CDK6/CCND1 (setting [6]), > 250 nM.

Turning to `CS(=O)(=O)c1ccc(Nc2cc3c(ccnc3[C@H]3CC[C@H](C(=O)NC4CCC4)CC3)cn2)cc1` [Ex 200, (1r,4r)-N-cyclobutyl-4-(7-((4-(methylsulfonyl)phenyl)amino)-2,6-naphthyridin-1-yl)cyclohexane-1-carboxamide], the IC50 was 25 to 250 nM at CDK2/CCNE1 (setting [8]), > 250 nM on CDK1/CCNB1 (setting [2]), > 250 nM at CDK4/CCND3 (setting [5]) and > 250 nM on CDK6/CCND1 (setting [6]).

On to `CS(=O)(=O)c1ccc(Nc2cc3c(ccnc3[C@H]3CC[C@H](C(=O)N4CCOCC4)CC3)cn2)cc1` [Ex 201, ((1r,4r)-4-(7-((4-(methylsulfonyl)phenyl)amino)-2,6-naphthyridin-1-yl)cyclohexyl)(morpholino)methanone], for which the IC50 at CDK2/CCNE1 (setting [10]), at CDK1/CCNB1 (setting [2]), on CDK4/CCND3 (setting [5]) and at CDK6/CCND1 (setting [6]) was > 250 nM in each case.

`CS(=O)(=O)c1ccc(Nc2cc3c(ccnc3[C@H]3CC[C@H](C(=O)Nc4ccccc4)CC3)cn2)cc1` [Ex 202, (1r,4r)-4-(7-((4-(methylsulfonyl)phenyl)amino)-2,6-naphthyridin-1-yl)-N-phenylcyclohexane-1-carboxamide]: the IC50 was 25 to 250 nM at CDK2/CCNE1 (setting [8]), > 250 nM on CDK1/CCNB1 (setting [2]), > 250 nM at CDK4/CCND3 (setting [5]) and > 250 nM on CDK6/CCND1 (setting [6]).

Take `Cc1c(-c2nccc3cnc(Nc4ccc(S(C)(=O)=O)cc4)cc23)ccc2nn(CCO)cc12` [Ex 206, 2-(4-methyl-5-(7-((4-(methylsulfonyl)phenyl)amino)-2,6-naphthyridin-1-yl)-2H-indazol-2-yl)ethan-1-ol]: the IC50 is 25 to 250 nM on CDK2/CCNE1 (setting [8]), > 250 nM at CDK1/CCNB1 (setting [2]), > 250 nM at CDK4/CCND3 (setting [5]) and > 250 nM at CDK6/CCND1 (setting [6]).

Take `Cc1c(-c2nccc3cnc(Nc4ccc(S(C)(=O)=O)cc4)cc23)ccc2c1cnn2CC1CNC1` [Ex 207, 5-(1-(azetidin-3-ylmethyl)-4-methyl-1H-indazol-5-yl)-N-(4-(methylsulfonyl)phenyl)-2,6-naphthyridin-3-amine]: the IC50 on CDK2/CCNE1 (setting [1]) was < 25 nM; at CDK1/CCNB1 (setting [9]), 25 to 250 nM; on CDK4/CCND3 (setting [7]), < 25 nM; on CDK6/CCND1 (<25 nM, read-out: CDK6/CCND IC50 <25 nM), < 25 nM.

(Values after US20260325533A1, “CDK INHIBITOR COMPOUNDS” (ALEKSIA THERAPEUTICS, INC., priority 2023, published 2026).)
